Data taken from patent US20230271950A1, “ANTIBACTERIAL PICOLINAMIDE COMPOUNDS” (University of Notre Dame Du Lac, priority 2020, published 2023).
Values after ≈ are worked out from the molar mass of the structure shown. Like-named read-outs stand apart in the source and are kept apart here.

Key:
[1] = test system: Lactobacillus reuteri; experiment: MIC against gut bacterium Lactobacillus reuteri; type: cell-based
[2] = test system: Fusobacterium nucleatum; experiment: MIC against gut bacterium Fusobacterium nucleatum; type: cell-based; conditions: Fusobacterium nucleatum strain HM-992
[3] = test system: Bacteroides fragilis; experiment: MIC against gut bacterium Bacteroides fragilis; type: cell-based; conditions: Bacteroides fragilis strain HM-709
[4] = test system: Eubacterium sp.; experiment: MIC against gut bacterium Eubacterium sp.; type: cell-based; conditions: Eubacterium sp. strain HM-178
[5] = test system: S. aureus ATCC29213; experiment: MIC against MSSA; type: cell-based, Staphylococcus aureus; conditions: Staphylococcus aureus; S. aureus ATCC29213; Table 1; read-out: MIC
[6] = test system: Veillonella sp. HM-49; experiment: MIC against gut bacterium Veillonella sp.; type: cell-based
[7] = test system: Corynebacterium spp.; experiment: MIC against gut bacterium Corynebacterium spp.; type: cell-based; conditions: Corynebacterium spp. strain HM-784; Table 1
[8] = test system: Bifidobacterium longum; experiment: MIC against gut bacterium Bifidobacterium longum; type: cell-based; conditions: Bifidobacterium longum strain HM-846
[9] = test system: Lactobacillus gasseri; experiment: MIC against gut bacterium Lactobacillus gasseri; type: cell-based
[10] = test system: C. difficile; experiment: MIC by broth microdilution against C. difficile strains; type: cell-based, Clostridioides difficile; conditions: Clostridioides difficile; for MIC: read-out: MIC
[11] = test system: MRSA (NRS70, NRS119); experiment: MIC against MRSA strains; type: cell-based, Staphylococcus aureus

**Q.** Which MIC ([1]; Lactobacillus reuteri strain HM-102, Table 7) does the source give for `CN[C@H](CC(C)C)C(=O)N[C@H]1C(=O)N[C@@H](CC(N)=O)C(=O)N[C@H]2C(=O)N[C@H]3C(=O)N[C@H](C(=O)N[C@H](C(=O)O)c4cc(O)cc(O)c4-c4cc3ccc4O)[C@H](O)c3ccc(c(Cl)c3)Oc3cc2cc(c3O[C@@H]2O[C@H](CO)[C@@H](O)[C@H](O)[C@H]2O[C@H]2C[C@](C)(N)[C@H](O)[C@H](C)O2)Oc2ccc(cc2Cl)[C@H]1O` [VAN, vancomycin, reference compound] here?
**A.** >32 µg/mL

**Q.** What about the MIC ([1]; Limosilactobacillus reuteri, Lactobacillus reuter strain HM-102, Table 1, read-out: MIC) of the same compound?
**A.** > 32 µg/mL

**Q.** What about the MIC ([2]; Table 1, read-out: MIC) of the same compound?
**A.** 0.25 µg/mL (≈ 0.173 µM)

**Q.** And the MIC ([2]; Table 7)?
**A.** 0.25 µg/mL (≈ 0.173 µM)

**Q.** What about the MIC ([3]; Table 1, read-out: MIC) of the same compound?
**A.** 16 µg/mL (≈ 11 µM)

**Q.** What about the MIC ([3]; Table 7) of the same compound?
**A.** 16 µg/mL (≈ 11 µM)

**Q.** And the MIC ([4]; Table 1, read-out: MIC)?
**A.** 2 µg/mL (≈ 1.38 µM)

**Q.** What about the MIC ([4]; Table 7) of the same compound?
**A.** 2 µg/mL (≈ 1.38 µM)

**Q.** And the MIC [5]?
**A.** 1 µg/mL (≈ 0.69 µM)

**Q.** And the MIC ([6]; SP.HM49, Veillonella sp. HM-49, Table 1, read-out: MIC)?
**A.** > 32 µg/mL

**Q.** What about the MIC ([6]; Veillonella sp. strain HM-49, Table 7) of the same compound?
**A.** >32 µg/mL

**Q.** And the MIC [7]?
**A.** 0.25 µg/mL (≈ 0.173 µM)

**Q.** And the MIC ([8]; Table 1, read-out: MIC)?
**A.** 0.25 µg/mL (≈ 0.173 µM)

**Q.** What about the MIC ([8]; Table 7) of the same compound?
**A.** 0.25 µg/mL (≈ 0.173 µM)

**Q.** And the MIC ([9]; Lactobacillus gasseri strain HM-644, Table 7)?
**A.** 1 µg/mL (≈ 0.69 µM)

**Q.** And the MIC ([9]; Lactobacillus gasseri, Lactobacillus gasser strain HM-644, Table 1, read-out: MIC)?
**A.** 1 µg/mL (≈ 0.69 µM)

**Q.** And the MIC ([10]; ATCC43598, C. difficile ATCC43598, Table 7)?
**A.** 1 µg/mL (≈ 0.69 µM)

**Q.** And the MIC ([10]; ATCC43598, C. difficile ATCC43598, Table 9)?
**A.** 1 µg/mL (≈ 0.69 µM)

**Q.** And the MIC ([10]; BAA1801, C. difficile BAA-1801, Table 7)?
**A.** 0.25 µg/mL (≈ 0.173 µM)

**Q.** What about the MIC ([10]; BAA1801, C. difficile BAA-1801, Table 9) of the same compound?
**A.** 0.25 µg/mL (≈ 0.173 µM)

**Q.** And the MIC ([10]; BAA1803, C. difficile BAA-1803, Table 7)?
**A.** 2 µg/mL (≈ 1.38 µM)

**Q.** And the MIC ([10]; BAA1803, C. difficile BAA-1803, Table 9)?
**A.** 2 µg/mL (≈ 1.38 µM)

**Q.** And the MIC ([10]; BAA1804, C. difficile BAA-1804, Table 7)?
**A.** 1 µg/mL (≈ 0.69 µM)

**Q.** And the MIC ([10]; BAA1804, C. difficile BAA-1804, Table 9)?
**A.** 1 µg/mL (≈ 0.69 µM)

**Q.** And the MIC ([10]; BAA1870, C. difficile BAA-1870 (NAP1, ribotype 27), Table 1)?
**A.** 2 µg/mL (≈ 1.38 µM)

**Q.** What about the MIC ([10]; BAA1870, C. difficile BAA-1870, Table 7) of the same compound?
**A.** 2 µg/mL (≈ 1.38 µM)

**Q.** And the MIC ([10]; BAA1870, C. difficile BAA-1870, Table 9)?
**A.** 2 µg/mL (≈ 1.38 µM)

**Q.** What about the MIC ([10]; C. difficile 23691 (VR, vancomycin-resistant), Table 7) of the same compound?
**A.** 4 µg/mL (≈ 2.76 µM)

**Q.** And the MIC ([10]; C. difficile 23691, clinical isolate resistant to VAN, Table 1)?
**A.** 4 µg/mL (≈ 2.76 µM)

**Q.** And the MIC ([10]; C. difficile 23691, Table 9)?
**A.** 4 µg/mL (≈ 2.76 µM)

**Q.** What about the MIC ([10]; C. difficile 23828 (FR, fidaxomicin-resistant), Table 7) of the same compound?
**A.** 2 µg/mL (≈ 1.38 µM)

**Q.** What about the MIC ([10]; C. difficile 23828, clinical isolate resistant to FDX, Table 1) of the same compound?
**A.** 2 µg/mL (≈ 1.38 µM)

**Q.** What about the MIC ([10]; C. difficile 23828, Table 9) of the same compound?
**A.** 2 µg/mL (≈ 1.38 µM)

**Q.** And the MIC ([10]; C. difficile 24531 (VR, vancomycin-resistant), Table 7)?
**A.** 4 µg/mL (≈ 2.76 µM)

**Q.** What about the MIC ([10]; C. difficile 24531, Table 9) of the same compound?
**A.** 4 µg/mL (≈ 2.76 µM)

**Q.** What about the MIC ([10]; C. difficile 24923 (VR, vancomycin-resistant), Table 7) of the same compound?
**A.** 8 µg/mL (≈ 5.52 µM)

**Q.** And the MIC ([10]; C. difficile 24923, Table 9)?
**A.** 8 µg/mL (≈ 5.52 µM)

**Q.** And the MIC ([10]; C. difficile 26675 (MR, metronidazole-resistant), Table 7)?
**A.** 1 µg/mL (≈ 0.69 µM)

**Q.** What about the MIC ([10]; C. difficile 26675, clinical isolate resistant to MTZ, Table 1) of the same compound?
**A.** 1 µg/mL (≈ 0.69 µM)

**Q.** And the MIC ([10]; C. difficile 26675, Table 9)?
**A.** 1 µg/mL (≈ 0.69 µM)

**Q.** What about the MIC ([10]; C. difficile 27081 (FR, fidaxomicin-resistant), Table 7) of the same compound?
**A.** 1 µg/mL (≈ 0.69 µM)

**Q.** What about the MIC ([10]; C. difficile 27081, Table 9) of the same compound?
**A.** 1 µg/mL (≈ 0.69 µM)

**Q.** What about the MIC ([10]; C. difficile HM-89, Table 9) of the same compound?
**A.** 0.25 µg/mL (≈ 0.173 µM)

**Q.** What about the MIC ([10]; C. difficile NR49292, Table 7) of the same compound?
**A.** 0.25 µg/mL (≈ 0.173 µM)

**Q.** And the MIC ([10]; C. difficile NR49292, Table 9)?
**A.** 0.25 µg/mL (≈ 0.173 µM)

**Q.** And the MIC ([10]; C. difficile NR49294, Table 7)?
**A.** 0.25 µg/mL (≈ 0.173 µM)

**Q.** And the MIC ([10]; C. difficile NR49294, Table 9)?
**A.** 0.25 µg/mL (≈ 0.173 µM)

**Q.** What about the MIC ([10]; C. difficile NR49318, Table 7) of the same compound?
**A.** 0.25 µg/mL (≈ 0.173 µM)

**Q.** What about the MIC ([10]; C. difficile NR49318, Table 9) of the same compound?
**A.** 0.25 µg/mL (≈ 0.173 µM)

**Q.** And the MIC ([10]; C. difficile NR-13427, Table 9)?
**A.** 1 µg/mL (≈ 0.69 µM)

**Q.** And the MIC ([10]; C. difficile NR-13428, Table 9)?
**A.** 2 µg/mL (≈ 1.38 µM)

**Q.** What about the MIC ([10]; C. difficile NR-13431, Table 9) of the same compound?
**A.** 0.25 µg/mL (≈ 0.173 µM)

**Q.** And the MIC ([10]; C. difficile NR-13433, Table 9)?
**A.** 1 µg/mL (≈ 0.69 µM)

**Q.** What about the MIC ([10]; C. difficile NR-32885, Table 9) of the same compound?
**A.** 1 µg/mL (≈ 0.69 µM)

**Q.** And the MIC ([10]; C. difficile NR-32889, Table 9)?
**A.** 2 µg/mL (≈ 1.38 µM)

**Q.** And the MIC ([10]; C. difficile NR-32890, Table 9)?
**A.** 2 µg/mL (≈ 1.38 µM)

**Q.** What about the MIC ([10]; C. difficile NR-32891, Table 9) of the same compound?
**A.** 1 µg/mL (≈ 0.69 µM)

**Q.** And the MIC ([10]; C. difficile NR-32895, Table 9)?
**A.** 2 µg/mL (≈ 1.38 µM)

**Q.** And the MIC ([10]; C. difficile NR-32896, Table 9)?
**A.** 2 µg/mL (≈ 1.38 µM)

**Q.** What about the MIC ([10]; C. difficile NR-32897, Table 9) of the same compound?
**A.** 0.25 µg/mL (≈ 0.173 µM)

**Q.** What about the MIC ([10]; C. difficile NR-32900, Table 9) of the same compound?
**A.** 1 µg/mL (≈ 0.69 µM)

**Q.** And the MIC ([10]; C. difficile NR-32904, Table 9)?
**A.** 0.25 µg/mL (≈ 0.173 µM)

**Q.** And the MIC ([10]; C. difficile NR-49280, Table 9)?
**A.** 1 µg/mL (≈ 0.69 µM)

**Q.** And the MIC ([10]; C. difficile NR-49285, Table 9)?
**A.** 0.25 µg/mL (≈ 0.173 µM)

**Q.** And the MIC ([10]; C. difficile NR-49291, Table 9)?
**A.** 1 µg/mL (≈ 0.69 µM)

**Q.** And the MIC ([10]; C. difficile NR-49298, Table 9)?
**A.** 1 µg/mL (≈ 0.69 µM)

**Q.** What about the MIC ([10]; C. difficile NR-49306, Table 9) of the same compound?
**A.** 1 µg/mL (≈ 0.69 µM)

**Q.** And the MIC ([10]; C. difficile NR-49307, Table 9)?
**A.** 1 µg/mL (≈ 0.69 µM)

**Q.** What about the MIC ([10]; C. difficile NR-49309, Table 9) of the same compound?
**A.** 1 µg/mL (≈ 0.69 µM)

**Q.** What about the MIC ([10]; C. difficile NR-49320, Table 9) of the same compound?
**A.** 1 µg/mL (≈ 0.69 µM)

**Q.** What about the MIC ([10]; C. difficile NR-49321, Table 9) of the same compound?
**A.** 0.25 µg/mL (≈ 0.173 µM)

**Q.** What about the MIC ([10]; C. difficile NR-49328, Table 9) of the same compound?
**A.** 0.25 µg/mL (≈ 0.173 µM)

**Q.** What about the MIC ([10]; C. difficile NR-49329, Table 9) of the same compound?
**A.** 0.25 µg/mL (≈ 0.173 µM)

**Q.** What about the MIC90 ([10]; read-out: MIC90 (101 strains)) of the same compound?
**A.** 2 µg/mL (≈ 1.38 µM)

**Q.** And the MIC ([11]; MRSA NRS70, Table 7)?
**A.** 2 µg/mL (≈ 1.38 µM)

**Q.** What about the MIC ([11]; MRSA NRS119, Table 1) of the same compound?
**A.** 2 µg/mL (≈ 1.38 µM)

**Q.** And the MIC ([11]; Staphylococcus aureus, MRSA NRS70, Table 1, read-out: MIC)?
**A.** 2 µg/mL (≈ 1.38 µM)
